According to ChEMBL document CHEMBL1127867, “5-Membered ring heterocyclic carboxylic acids as angiotensin II antagonists” (Bioorg Med Chem Lett, 1994):

Biological target: Angiotensin II receptor (Oryctolagus cuniculus)
Assay: Tested in vitro for angiotensin II induced antagonistic activity in rabbit aorta, expressed as pA2

| Structure (SMILES) | pA2 |
| --- | --- |
| CCCCCCN(Cc1ccc(-c2ccccc2-c2nn[nH]n2)cc1)c1ncc(C(=O)O)s1 | 7.34 |
| CCCc1nc(N(CCC)Cc2ccc(-c3ccccc3-c3nn[nH]n3)cc2)sc1C(=O)O | 7.43 |
| CCCN(Cc1ccc(-c2ccccc2-c2nn[nH]n2)cc1)c1nc(C)c(C(=O)O)s1 | 8.63 |
| CCCN(Cc1ccc(-c2ccccc2-c2nn[nH]n2)cc1)c1nsnc1C(=O)O | 9 |
| CCCCN(Cc1ccc(-c2ccccc2-c2nn[nH]n2)cc1)c1nnn(CCCC)c1C(=O)O | 8.86 |
| CCCCN(Cc1ccc(-c2ccccc2-c2nn[nH]n2)cc1)c1nnn(C)c1C(=O)O | 8.6 |
| CCCCN(Cc1ccc(-c2ccccc2-c2nn[nH]n2)cc1)c1scnc1C(=O)O | 8.2 |
| CCCCN(Cc1ccc(-c2ccccc2-c2nn[nH]n2)cc1)c1ncc(C(=O)O)s1 | 8.8 |
| CCCCN(Cc1ccc(-c2ccccc2-c2nn[nH]n2)cc1)c1c(C(=O)O)ncn1C | 6.46 |
| CCCCN(Cc1ccc(-c2ccccc2-c2nn[nH]n2)cc1)c1c(C(=O)O)cnn1C | < 7 |
| O=C(O)c1cnc(NCc2ccc(-c3ccccc3-c3nn[nH]n3)cc2)s1 | < 6 |
| CCCc1nc(NCc2ccc(-c3ccccc3-c3nn[nH]n3)cc2)sc1C(=O)O | < 6 |
| CCCN(Cc1ccc(-c2ccccc2-c2nn[nH]n2)cc1)c1nn(C)cc1C(=O)O | 7.94 |
| CCCCN(Cc1ccc(-c2ccccc2-c2nn[nH]n2)cc1)c1snnc1C(=O)O | 8.36 |
| CCCN(Cc1ccc(-c2ccccc2-c2nn[nH]n2)cc1)c1ncc(C(=O)O)s1 | 7.87 |
| CCCN(Cc1ccc(-c2ccccc2-c2nn[nH]n2)cc1)c1nc(C(F)(F)F)c(C(=O)O)s1 | 7.56 |
